Test results as given in ChEMBL document CHEMBL1201862, “PubChem BioAssay data set” (2004).
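Exposure lasted 48 hours, with cells grown in 96-well plates and compounds tested at five concentrations. GI50 marks 50% less growth.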 Calls of active or inactive are those of the source. No stated cut-off is given here; in the data, active = GI50 up to about 1.1 µM and inactive = higher.

Key:
Assay in all cases: inhibition of tumour cell growth, NCI panel, 48 h
786-0 = tested on: 786-0
A498 = tested on: A498
A549 = tested on: A549
ACHN = tested on: ACHN
BT-549 = tested on: BT-549
CAKI-1 = tested on: CAKI-1
CCRF-CEM = tested on: CCRF-CEM
COLO 205 = tested on: COLO 205
DU-145 = tested on: DU-145
EKVX = tested on: EKVX
HCC 2998 = tested on: HCC 2998
HCT-116 = tested on: HCT-116
HCT-15 = tested on: HCT-15
HL-60 = tested on: HL-60
HOP-62 = tested on: HOP-62
HOP-92 = tested on: HOP-92
HT-29 = tested on: HT-29
IGROV-1 = tested on: IGROV-1
K562 = tested on: K562
KM12 = tested on: KM12
LOX IMVI = tested on: LOX IMVI
M14 = tested on: M14
MCF7 = tested on: MCF7
MDA-MB-435 = tested on: MDA-MB-435
MDA-N = tested on: MDA-N
MOLT-4 = tested on: MOLT-4
NCI-H226 = tested on: NCI-H226
NCI-H23 = tested on: NCI-H23
NCI-H460 = tested on: NCI-H460
NCI/ADR-RES = tested on: NCI/ADR-RES
OVCAR-3 = tested on: OVCAR-3
OVCAR-5 = tested on: OVCAR-5
OVCAR-8 = tested on: OVCAR-8
PC-3 = tested on: PC-3
RPMI-8226 = tested on: RPMI-8226
SF-295 = tested on: SF-295
SF-539 = tested on: SF-539
SK-MEL-28 = tested on: SK-MEL-28
SK-MEL-2 = tested on: SK-MEL-2
SK-MEL-5 = tested on: SK-MEL-5
SK-OV-3 = tested on: SK-OV-3
SN12C = tested on: SN12C
SNB-19 = tested on: SNB-19
SNB-75 = tested on: SNB-75
SR = tested on: SR
SW-620 = tested on: SW-620
T47D = tested on: T47D
U-251 = tested on: U-251
UACC-257 = tested on: UACC-257
UACC-62 = tested on: UACC-62
UO-31 = tested on: UO-31
Malme-3M = tested on: Malme-3M
NCI-H522 = tested on: NCI-H522
OVCAR-4 = tested on: OVCAR-4
RXF 393 = tested on: RXF 393
SF-268 = tested on: SF-268
TK-10 = tested on: TK-10
MDA-MB-231 = tested on: MDA-MB-231

## Nc1cc(N2CCOCC2)nc(=O)n1-c1ccccc1
786-0
  GI50: > 100 µM (inactive)
A498
  GI50: > 100 µM (inactive)
A549
  GI50: > 100 µM (inactive)
ACHN
  GI50: > 100 µM (inactive)
BT-549
  GI50: > 100 µM (inactive)
CAKI-1
  GI50: > 100 µM (inactive)
CCRF-CEM
  GI50: > 100 µM (inactive)
COLO 205
  GI50: > 100 µM (inactive)
DU-145
  GI50: > 100 µM (inactive)
EKVX
  GI50: > 100 µM (inactive)
HCC 2998
  GI50: > 100 µM (inactive)
HCT-116
  GI50: > 100 µM (inactive)
HCT-15
  GI50: > 100 µM
HL-60
  GI50: 21.4 µM (inactive)
HOP-62
  GI50: > 100 µM (inactive)
HOP-92
  GI50: > 100 µM (inactive)
HT-29
  GI50: > 100 µM (inactive)
IGROV-1
  GI50: > 100 µM (inactive)
K562
  GI50: > 100 µM (inactive)
KM12
  GI50: > 100 µM (inactive)
LOX IMVI
  GI50: > 100 µM (inactive)
M14
  GI50: > 100 µM (inactive)
MCF7
  GI50: > 100 µM (inactive)
MDA-MB-435
  GI50: > 100 µM (inactive)
MDA-N
  GI50: > 100 µM (inactive)
MOLT-4
  GI50: > 100 µM (inactive)
NCI-H226
  GI50: > 100 µM (inactive)
NCI-H23
  GI50: > 100 µM (inactive)
NCI-H460
  GI50: > 100 µM (inactive)
NCI/ADR-RES
  GI50: > 100 µM (inactive)
OVCAR-3
  GI50: > 100 µM (inactive)
OVCAR-5
  GI50: > 100 µM (inactive)
OVCAR-8
  GI50: > 100 µM (inactive)
PC-3
  GI50: > 100 µM (inactive)
RPMI-8226
  GI50: > 100 µM (inactive)
SF-295
  GI50: > 100 µM (inactive)
SF-539
  GI50: > 100 µM (inactive)
SK-MEL-28
  GI50: > 100 µM (inactive)
SK-MEL-2
  GI50: > 100 µM (inactive)
SK-MEL-5
  GI50: > 100 µM (inactive)
SK-OV-3
  GI50: > 100 µM (inactive)
SN12C
  GI50: > 100 µM (inactive)
SNB-19
  GI50: > 100 µM (inactive)
SNB-75
  GI50: > 100 µM (inactive)
SR
  GI50: > 100 µM (inactive)
SW-620
  GI50: > 100 µM (inactive)
T47D
  GI50: > 100 µM (inactive)
U-251
  GI50: > 100 µM (inactive)
UACC-257
  GI50: > 100 µM (inactive)
UACC-62
  GI50: > 100 µM (inactive)
UO-31
  GI50: > 100 µM (inactive)

## O=c1[nH]c(-c2ccc(Cl)cc2)cc2ccsc12
A549
  GI50: 3.5 µM (inactive)
ACHN
  GI50: 6.03 µM (inactive)
BT-549
  GI50: 4.82 µM (inactive)
CAKI-1
  GI50: 2.52 µM (inactive)
COLO 205
  GI50: 9.82 µM (inactive)
DU-145
  GI50: 2.05 µM (inactive)
EKVX
  GI50: 8.38 µM (inactive)
HCC 2998
  GI50: 2.31 µM (inactive)
HCT-116
  GI50: 3.3 µM (inactive)
HCT-15
  GI50: 2.26 µM
HL-60
  GI50: 2.94 µM (inactive)
HOP-62
  GI50: 8.07 µM (inactive)
HOP-92
  GI50: 10.6 µM (inactive)
HT-29
  GI50: 4.07 µM (inactive)
IGROV-1
  GI50: 3.49 µM (inactive)
K562
  GI50: 5.16 µM (inactive)
KM12
  GI50: 3.21 µM (inactive)
LOX IMVI
  GI50: 4.36 µM (inactive)
M14
  GI50: 3.48 µM (inactive)
MCF7
  GI50: 5.05 µM (inactive)
MDA-MB-435
  GI50: 0.453 µM (active)
MDA-N
  GI50: 1.58 µM (inactive)
MOLT-4
  GI50: 3.78 µM (inactive)
Malme-3M
  GI50: 1.2 µM (inactive)
NCI-H226
  GI50: > 100 µM (inactive)
NCI-H23
  GI50: 4.92 µM (inactive)
NCI-H460
  GI50: 4.74 µM (inactive)
NCI-H522
  GI50: 3.31 µM (inactive)
NCI/ADR-RES
  GI50: 3.56 µM (inactive)
OVCAR-3
  GI50: 1.66 µM (inactive)
OVCAR-4
  GI50: 23.3 µM (inactive)
OVCAR-5
  GI50: 6.34 µM (inactive)
OVCAR-8
  GI50: 8.41 µM (inactive)
PC-3
  GI50: 8.83 µM (inactive)
RPMI-8226
  GI50: 3.1 µM (inactive)
RXF 393
  GI50: 12.2 µM (inactive)
SF-268
  GI50: 9.23 µM (inactive)
SF-295
  GI50: 3.42 µM (inactive)
SK-MEL-28
  GI50: 5.15 µM (inactive)
SK-MEL-2
  GI50: 3.21 µM (inactive)
SK-MEL-5
  GI50: 4.41 µM (inactive)
SK-OV-3
  GI50: 4.9 µM (inactive)
SN12C
  GI50: 5.5 µM (inactive)
SNB-19
  GI50: 2.49 µM (inactive)
SNB-75
  GI50: 3.66 µM (inactive)
SR
  GI50: 0.506 µM (active)
SW-620
  GI50: 4.69 µM (inactive)
T47D
  GI50: 2.37 µM (inactive)
TK-10
  GI50: 2.82 µM (inactive)
U-251
  GI50: 3.14 µM (inactive)
UACC-257
  GI50: 0.662 µM (active)
UACC-62
  GI50: 8.22 µM (inactive)
UO-31
  GI50: 5.94 µM (inactive)

## CN1C(=O)N(C)C2(CCN(CCCCCCF)CC2)C1=O
786-0
  GI50: > 100 µM (inactive)
A549
  GI50: > 100 µM (inactive)
ACHN
  GI50: > 100 µM (inactive)
BT-549
  GI50: 23.3 µM (inactive)
CAKI-1
  GI50: > 100 µM (inactive)
CCRF-CEM
  GI50: > 100 µM (inactive)
COLO 205
  GI50: > 100 µM (inactive)
DU-145
  GI50: > 100 µM (inactive)
EKVX
  GI50: > 100 µM (inactive)
HCC 2998
  GI50: > 100 µM (inactive)
HCT-116
  GI50: > 100 µM (inactive)
HCT-15
  GI50: > 100 µM
HL-60
  GI50: > 100 µM (inactive)
HOP-62
  GI50: > 100 µM (inactive)
HT-29
  GI50: > 100 µM (inactive)
IGROV-1
  GI50: > 100 µM (inactive)
K562
  GI50: > 100 µM (inactive)
KM12
  GI50: > 100 µM (inactive)
LOX IMVI
  GI50: > 100 µM (inactive)
M14
  GI50: > 100 µM (inactive)
MCF7
  GI50: > 100 µM (inactive)
MDA-MB-231
  GI50: > 100 µM (inactive)
MDA-MB-435
  GI50: 26 µM (inactive)
MDA-N
  GI50: > 100 µM (inactive)
MOLT-4
  GI50: > 10 µM (inactive)
Malme-3M
  GI50: > 100 µM (inactive)
NCI-H226
  GI50: > 100 µM (inactive)
NCI-H23
  GI50: > 100 µM (inactive)
NCI-H522
  GI50: > 100 µM (inactive)
NCI/ADR-RES
  GI50: > 100 µM (inactive)
OVCAR-3
  GI50: > 100 µM (inactive)
OVCAR-5
  GI50: > 100 µM (inactive)
OVCAR-8
  GI50: > 100 µM (inactive)
PC-3
  GI50: > 100 µM (inactive)
RPMI-8226
  GI50: > 100 µM (inactive)
RXF 393
  GI50: > 100 µM (inactive)
SF-268
  GI50: > 100 µM (inactive)
SF-295
  GI50: > 100 µM (inactive)
SF-539
  GI50: > 100 µM (inactive)
SK-MEL-28
  GI50: > 100 µM (inactive)
SK-MEL-5
  GI50: > 100 µM (inactive)
SK-OV-3
  GI50: > 100 µM (inactive)
SN12C
  GI50: > 100 µM (inactive)
SNB-19
  GI50: > 100 µM (inactive)
SNB-75
  GI50: > 100 µM (inactive)
SR
  GI50: > 100 µM (inactive)
SW-620
  GI50: > 100 µM (inactive)
T47D
  GI50: > 100 µM (inactive)
TK-10
  GI50: > 100 µM (inactive)
U-251
  GI50: > 100 µM (inactive)
UACC-257
  GI50: > 100 µM (inactive)
UACC-62
  GI50: > 100 µM (inactive)
UO-31
  GI50: > 100 µM (inactive)
